Experiments:
[1] = target: T1, tyrosinase (Agaricus bisporus, UniProt C7FF04); test: Kinetic analysis of tyrosinase inhibition (Lineweaver-Burk, secondary re-plots); assay type: biochemical, mushroom
Description: . Briefly, 130 µL of tyrosinase (50 U/mL) solvated in 50 mM phosphate buffer (pH: 6.8) were mixed with 20 µL of 2-fold serial dilutions (from 1 mM to 0.03125 mM) of compounds in DMSO, and transferred into a 96-well plate. After 5 min pre-incubation of the mixture at 37 °C, 50 µL of 2 mM L-tyrosine in buffer were added and incubated for additional 20 min at 37 °C. The control wells contained DMSO instead of compound, and the blank wells were added with buffer in place of L-tyrosine. Kojic acid was used as a positive control. The absorbance was measured at 495 nm using microplate reader. The percentage inhibition was calculated using the formula as below: % inhibition=[1–(ODcompound–ODblank)/(ODcontrol–ODblank)]×100
(§1) The data were expressed as double-reciprocal Lineweaver − Burk plot and the inhibition constants (KI and KIS) were obtained from secondary plots of slope and y intercept of lines from Lineweaver-Burk plot against inhibitor[25].

[2] = target: T1, tyrosinase; test: Tyrosinase inhibitory assay (L-tyrosine substrate); conditions: read-out: tyrosinase inhibitory activity 100 μM (%)
Description: After 5 min pre-incubation of the mixture at 37 °C, 50 µL of 2 mM L-tyrosine in buffer were added and incubated for additional 20 min at 37 °C. The control wells contained DMSO instead of compound, and the blank wells were added with buffer in place of L-tyrosine. […] The percentage inhibition was calculated using the formula as below: % inhibition=[1–(ODcompound–ODblank)/(ODcontrol–ODblank)]×100

[3] = target: T2, α-glucosidase (Saccharomyces cerevisiae, UniProt P53341); test: α-Glucosidase inhibitory assay (p-NPG substrate); conditions: for inhibition at 750 µM: read-out: α-glucosidase inhibitory activity 750 μM (%)
Description: The α-glucosidase (G5003, Sigma-Aldrich) was obtained from Saccharomyces cerevisiae and the enzyme inhibitory assay was performed using formerly described method[24] with some modifications. […] The percentage inhibition was calculated using the following equation: % inhibition=[1–(ODcompound–ODblank)/(ODcontrol–ODblank)]×100

[4] = target: T2, α-glucosidase; test: Kinetic analysis of α-glucosidase inhibition (Lineweaver-Burk, secondary plot); assay type: biochemical
Description: The α-glucosidase (G5003, Sigma-Aldrich) was obtained from Saccharomyces cerevisiae and the enzyme inhibitory assay was performed using formerly described method[24] with some modifications. […]. The OD values were measured at 405 nm with microplate reader. Acarbose was used as reference compound. The percentage inhibition was calculated using the following equation: % inhibition=[1–(ODcompound–ODblank)/(ODcontrol–ODblank)]×100
as §1

T2 sequence (P53341 whole entry): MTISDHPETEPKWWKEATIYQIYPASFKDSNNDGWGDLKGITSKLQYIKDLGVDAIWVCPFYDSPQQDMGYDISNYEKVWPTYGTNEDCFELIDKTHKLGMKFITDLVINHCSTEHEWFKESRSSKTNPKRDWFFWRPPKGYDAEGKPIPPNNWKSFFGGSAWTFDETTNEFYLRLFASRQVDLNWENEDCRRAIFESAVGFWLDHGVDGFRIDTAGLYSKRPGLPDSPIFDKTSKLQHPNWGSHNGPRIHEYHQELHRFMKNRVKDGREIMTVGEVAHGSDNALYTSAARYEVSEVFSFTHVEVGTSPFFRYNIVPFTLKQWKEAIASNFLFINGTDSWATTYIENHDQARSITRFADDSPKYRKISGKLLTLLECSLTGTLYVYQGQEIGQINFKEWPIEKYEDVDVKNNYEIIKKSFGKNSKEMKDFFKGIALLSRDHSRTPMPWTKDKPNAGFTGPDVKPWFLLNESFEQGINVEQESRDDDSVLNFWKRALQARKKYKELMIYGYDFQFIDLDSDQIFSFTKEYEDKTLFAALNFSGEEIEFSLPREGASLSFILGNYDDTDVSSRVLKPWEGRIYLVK
T1 sequence (C7FF04 1-392): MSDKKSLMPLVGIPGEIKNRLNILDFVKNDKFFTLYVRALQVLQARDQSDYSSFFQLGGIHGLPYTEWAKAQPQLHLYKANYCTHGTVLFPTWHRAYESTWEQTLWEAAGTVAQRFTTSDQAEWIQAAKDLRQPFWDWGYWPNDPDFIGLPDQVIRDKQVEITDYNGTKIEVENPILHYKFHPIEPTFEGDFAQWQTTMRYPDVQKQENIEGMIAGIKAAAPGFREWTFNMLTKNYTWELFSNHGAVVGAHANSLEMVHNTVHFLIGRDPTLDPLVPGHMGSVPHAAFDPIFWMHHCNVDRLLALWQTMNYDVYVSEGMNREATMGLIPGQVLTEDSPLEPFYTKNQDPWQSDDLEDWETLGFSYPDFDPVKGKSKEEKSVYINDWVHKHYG

Compound	inhibition at 100 µM [2] [%]	inhibition at 750 µM [3] [%]	other results
COc1ccc(CCc2cc(=O)c3cc(O)cc(O)c3o2)cc1 [Compound 14, 6,8-dihydroxy-2-[2-(4-methoxyphenyl)ethyl]chromone]	65 ± 1.8	< 30	type of inhibition of tyrosinase ([1]; Lineweaver-Burk plot): mixed type inhibitors; inhibition constant KIS, binding with enzyme-substrate complex (tyrosinase) ([1]; secondary re-plot of y intercept vs. inhibitor): 72.8 µM
CC1CCC2C(C)(C)C(CO)C3CCC12C3 (centres unmarked) [Compound 8, Jinkohol II]	< 30	77.3 ± 1	–
CC1=C2CCC(CO)C23CCC(C3)C1(C)C (centres unmarked) [Compound 10, isokhusenol]	< 30	92.1 ± 3.4	–
C[C@H]1O[C@H](O[C@H]2[C@H](O)[C@@H](O)[C@@H](O[C@H]3[C@H](O)[C@@H](O)C(O)O[C@@H]3CO)O[C@@H]2CO)[C@H](O)[C@@H](O)[C@@H]1N[C@H]1C=C(CO)[C@@H](O)[C@H](O)[C@H]1O (some centres unmarked) [acarbose, reference compound]	–	–	α-glucosidase inhibitory activity 750 μM (%) ([3]; 750 μM, means ± SD, three individual experiments): 50.7 ± 1.2%; α-glucosidase inhibition rate ([3]; concentration of 50 µg/mL): 62.06 ± 4.77%
C=C1C2CCC3(C(CO)CCC3C1(C)C)C2O (centres unmarked) [Compound 1, Agarozizanol A]	< 30	37.4 ± 1.4	–
COc1ccc(CCc2cc(=O)c3cc(O)c(OC)cc3o2)cc1O [Compound 13, 6-hydroxy-7-methoxy-2-[2-(3-hydroxy-4-methoxyphenyl)ethyl]chromone]	53.4 ± 0.7	< 30	–
CC1=C2C(O)CC(CO)C23CCC(C3)C1(C)C (centres unmarked) [Compound 6, Agarozizanol F]	< 30	< 30	–
COc1ccc(CCc2cc(=O)c3cc(OC)c(O)cc3o2)cc1O [Compound 12, 6-methoxy-7-hydroxy-2-[2-(3-hydroxy-4-methoxyphenyl)ethyl]chromone]	< 30	< 30	–
CC1CCC2C(C)(C)C(CO)C3(O)CCC12C3 (centres unmarked) [Compound 2, Agarozizanol B]	< 30	42 ± 2.7	–
O=c1cc(CCc2ccccc2)oc2c1C(O)C(O)C(O)C2Cl (centres unmarked) [Compound 15, 8-chloro-2–(2-phenylethyl)-5,6,7-trihydroxy-5,6,7,8-tetrahydrochromone]	34.8 ± 1.4	< 30	–
CC1CCC2C13CCC(C3)C(C)(O)C2(C)C (centres unmarked) [Compound 7, Jinkohol I]	< 30	86.9 ± 0.4	–
COc1ccc(CCc2cc(=O)c3c(o2)C(Cl)C(O)C(O)C3O)cc1 (centres unmarked) [Compound 16, 8-chloro-2–(2-(4-methoxyphenyl)ethyl)-5,6,7-trihydroxy-5,6,7,8-tetrahydrochromone]	< 30	< 30	–
CC1CCC2C(C)(C)C(C(=O)O)C3CCC12C3 (centres unmarked) [Compound 9, Jinkoholic acid]	< 30	48.9 ± 1.1	–
CC1=C2CCC(C)C23CCC(C3)C1(C)CO (centres unmarked) [Compound 5, Agarozizanol E]	< 30	93.4 ± 3.1	type of inhibition of α-glucosidase [4]: uncompetitive inhibitors
CC1CCC2C13CCC(C3O)C(C)(O)C2(C)C (centres unmarked) [Compound 3, Agarozizanol C]	< 30	< 30	–
CC1CCC2C13CCC(C3)C(O)(CO)C2(C)C (centres unmarked) [Compound 4, Agarozizanol D]	< 30	49.9 ± 1.8	–
